Test results: patent US6534524B1, “Indazole compounds and pharmaceutical compositions for inhibiting protein kinases, and methods for their use” (Agouron Pharmaceuticals, Inc., priority 1999, dated 2003)
Where two headings read alike, the source gives them in different places.

Columns and labels:
[1] = target: CDK2/Cyclin A (Homo sapiens, UniProt P24941); experiment: CDK2/Cyclin A assay ([32P]ATP, Rb fragment); assay type: biochemical
[2] = target: phosphorylated VEGF-R2Δ50 (FLVK-P) (Homo sapiens, UniProt P35968, DEL940-989/E990V); experiment: VEGF-R2 coupled spectrophotometric assay, phosphorylated VEGF-R2Δ50 (FLVK-P)
[3] = target: CDK4/Cyclin D3 complex (Homo sapiens, UniProt P11802); experiment: CDK4/Cyclin D assay ([32P]ATP, Rb fragment)
[4] = target: unphosphorylated VEGF-R2Δ50 (FLVK) (Homo sapiens, UniProt P35968, DEL940-989/E990V); experiment: VEGF-R2 coupled spectrophotometric assay, unphosphorylated VEGF-R2Δ50 (FLVK); conditions: FLVK Ki, Table 1
[5] = target: T1, human CHK1 (FL-CHK1) (Homo sapiens, UniProt O14757); experiment: CHK1 assay (coupled spectrophotometric, Syntide-2); assay type: biochemical
T1 construct: C-terminally His-tagged full-length human CHK1 (FL-CHK1); made in house; host or cells: baculovirus/insect cell system
T1 sequence (O14757 1-476): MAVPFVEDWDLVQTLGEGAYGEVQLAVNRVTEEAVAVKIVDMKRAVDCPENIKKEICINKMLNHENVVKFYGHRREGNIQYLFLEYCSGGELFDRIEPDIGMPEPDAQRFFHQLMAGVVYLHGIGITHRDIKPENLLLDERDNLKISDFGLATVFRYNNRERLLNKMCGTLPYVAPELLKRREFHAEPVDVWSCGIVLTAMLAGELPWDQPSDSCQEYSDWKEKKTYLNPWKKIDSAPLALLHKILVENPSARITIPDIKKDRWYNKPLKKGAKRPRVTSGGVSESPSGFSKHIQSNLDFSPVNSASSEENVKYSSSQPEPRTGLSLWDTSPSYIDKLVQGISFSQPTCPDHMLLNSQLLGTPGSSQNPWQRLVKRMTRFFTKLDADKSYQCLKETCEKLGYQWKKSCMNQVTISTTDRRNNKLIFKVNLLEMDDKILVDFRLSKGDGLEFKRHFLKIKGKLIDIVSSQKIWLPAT
Excerpt: CHK1 Construct for Assay: C-terminally His-tagged full-length human CHK1 (FL-CHK1) was expressed using the baculovirus/insect cell system. […] The protein was purified by conventional chromatographic techniques.
The production of ADP from ATP that accompanies phosphoryl transfer to the synthetic substrate peptide Syntide-2 ([…]) was coupled to oxidation of NADH using phosphoenolpyruvate (PEP) through the actions of pyruvate kinase (PK) and lactic dehydrogenase (LDH). The oxidation of NADH was monitored by following the decrease of absorbance at 340 nm (ε340=6.22 cm^−1 mM^−1) using a HP8452 spectrophotometer. […] Assays were initiated with 10 nM of FL-CHK1. Ki values were determined by measuring initial enzyme activity in the presence of varying concentrations of test compounds. The data were analyzed using Enzyme Kinetic and Kaleidagraph software.

[6] = Determination of inhibitor concentration in mouse plasma after intraperitoneal and oral dosing; assay type: in vivo; conditions: for concentration at 7 h: female, vehicle PEG400:H2O pH 2.3 30:70, read-out: Cmin (7 hr conc.)
Outline: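 Mice dosed intraperitoneally or orally; blood taken by ocular bleed at 0.5, 1 and 4 h and by intracardiac puncture at 7 h. Plasma extracted with ethyl acetate after internal standard and NaOH addition, analysed by HPLC or LC-MS against a mouse-plasma standard curve.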

[7] = Human liver microsome (HLM) assay; assay type: in vitro ADME; conditions: human liver microsomes, 5 μM test compound
Outline: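 Compound metabolism in human liver microsomes measured in triplicate. Samples at 0 and 2 h centrifuged at 14000 g for 10 min and analysed by LC-MS.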

[8] = target: human FGF-R1 (Homo sapiens, UniProt P11362, C488A/C584S/L457V); experiment: FGF-R spectrophotometric assay
[9] = system: human umbilical vein endothelial cells (HUVEC); experiment: HUVEC proliferation assay (VEGF-stimulated, MTT); assay type: cell-based; conditions: Homo sapiens, HUVEC, + albumin; read-out: HUVEC + albumin IC50
[10] = IP, 25 mg/kg, vehicle PEG400:H2O pH 2.3 30:70
[11] = PO, 50 mg/kg, vehicle PEG400:H2O pH 2.3 30:70

human FGF-R1, sequence (P11362 456-766 L457V/C488A/C584S): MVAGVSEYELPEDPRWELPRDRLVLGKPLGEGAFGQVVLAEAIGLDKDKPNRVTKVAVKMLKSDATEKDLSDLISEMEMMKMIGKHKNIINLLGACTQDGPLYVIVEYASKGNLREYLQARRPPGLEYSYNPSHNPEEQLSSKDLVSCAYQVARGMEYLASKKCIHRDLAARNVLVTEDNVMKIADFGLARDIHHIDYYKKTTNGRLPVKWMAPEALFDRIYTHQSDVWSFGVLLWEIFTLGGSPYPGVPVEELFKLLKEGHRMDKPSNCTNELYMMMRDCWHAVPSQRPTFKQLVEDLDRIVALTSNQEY
CDK4/Cyclin D3 complex, sequence (P11802 whole entry, the tested form may be a part): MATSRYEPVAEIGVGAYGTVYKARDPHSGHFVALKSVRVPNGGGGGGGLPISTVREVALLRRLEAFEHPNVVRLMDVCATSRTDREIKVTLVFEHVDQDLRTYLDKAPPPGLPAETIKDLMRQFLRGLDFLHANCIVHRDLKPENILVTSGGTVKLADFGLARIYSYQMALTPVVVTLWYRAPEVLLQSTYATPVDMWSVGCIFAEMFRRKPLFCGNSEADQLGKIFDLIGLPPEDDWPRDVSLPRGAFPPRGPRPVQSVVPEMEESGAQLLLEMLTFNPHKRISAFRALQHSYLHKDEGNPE
CDK4/Cyclin D3 complex, sequence (P30281 whole entry partner, the tested form may be a part): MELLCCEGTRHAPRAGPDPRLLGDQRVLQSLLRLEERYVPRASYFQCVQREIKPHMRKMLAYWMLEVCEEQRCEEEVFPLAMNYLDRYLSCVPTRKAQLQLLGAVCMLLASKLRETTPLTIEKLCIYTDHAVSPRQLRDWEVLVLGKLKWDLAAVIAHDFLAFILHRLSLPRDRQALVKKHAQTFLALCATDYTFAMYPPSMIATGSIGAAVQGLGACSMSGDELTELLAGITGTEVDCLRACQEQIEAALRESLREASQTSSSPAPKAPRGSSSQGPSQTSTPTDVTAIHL
unphosphorylated VEGF-R2Δ50 (FLVK), sequence (P35968 with tags, fused parts or gaps DEL940-989/E990V limits assumed): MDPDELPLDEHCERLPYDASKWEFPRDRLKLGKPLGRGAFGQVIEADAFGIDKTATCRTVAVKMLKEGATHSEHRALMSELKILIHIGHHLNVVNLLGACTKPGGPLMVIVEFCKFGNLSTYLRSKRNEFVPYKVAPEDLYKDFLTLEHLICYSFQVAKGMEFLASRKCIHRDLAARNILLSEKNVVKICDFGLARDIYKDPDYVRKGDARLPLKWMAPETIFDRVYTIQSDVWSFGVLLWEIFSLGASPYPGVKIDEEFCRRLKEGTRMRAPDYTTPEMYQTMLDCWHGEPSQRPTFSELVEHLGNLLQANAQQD
phosphorylated VEGF-R2Δ50 (FLVK-P), sequence (P35968 with tags, fused parts or gaps DEL940-989/E990V limits assumed): as above

`COc1cc(-c2ccc3c(-c4ccccc4)n[nH]c3c2)ccc1O` [Example 2(b), 3-Phenyl-6-(3-methoxy-4-hydroxy-phenyl)-1H-indazole] showed a Ki ([1]; Table 1) of 2200 nM, a Ki [2] of 425 nM and a Ki [3] of 8000 nM. The Ki [4] was 300 nM.
With `Cc1cccc(C(=O)Nc2cccc(Oc3ccc4c(-c5cc6ccccc6[nH]5)n[nH]c4c3)c2)c1` [Example 6(b)] the Ki [2] was 0.15 nM.
`C(=C\c1n[nH]c2cc(Sc3ccccc3)ccc12)/c1ccccc1` [Example 8(c)] showed a Ki ([5]; Table 1, read-out: CHK-1 Ki) of over 10000 nM, a Ki [2] of 16 nM and a Ki [4] of 2.6 nM.
For `CN(c1cccc(N)c1)c1ccc2c(/C=C/c3ccc4c(c3)OCO4)n[nH]c2c1` [Example 15, N-[3-(2-Benzo[1,3]dioxol-5-yl-vinyl)-1H-indazol-6-yl]-N-methyl-benzene-1,3-diamine], the Ki [2] was 15 nM.
Work on `CN(C)c1cccc(C(=O)Nc2cccc(N(C)c3ccc4c(/C=C/c5ccc6c(c5)OCO6)n[nH]c4c3)c2)c1` [Example 16(c), N-(3-{[3-(2-Benzo[1,3]dioxol-5-yl-vinyl)-1H-indazol-6-yl]-methyl-amino}-phenyl)-3-dimethylamino-benzamide] yielded a Ki [2] of 1.1 nM.
`CN(c1cccc(NC(=O)c2ccc(O)c(C(C)(C)C)c2)c1)c1ccc2c(/C=C/c3ccc4c(c3)OCO4)n[nH]c2c1` [Example 16(f)] gave a Ki [2] of 2.8 nM.
Molecule `CC(=O)Nc1cccc(C(=O)c2ccc3c(/C=C/c4ccccc4)n[nH]c3c2)c1` [Example 19(a), N-[3-(3-Styryl-1H-indazole-6-carbonyl)-phenyl]-acetamide] has a Ki [2] of 6.8 nM and a Ki [4] of 13.8 nM.
For `O=C(Nc1cccc(C(=O)c2ccc3c(/C=C/c4ccccc4)n[nH]c3c2)c1)c1ccccc1` [Example 19(b), N-[3-(3-Styryl-1H-indazole-6-carbonyl)-phenyl]-benzamide], the Ki [2] was 6.6 nM, the “plasma half-life (T1/2)” value ([6]; PO, 50 mg/kg, vehicle PEG400:H2O pH 2.3 60:40) was “∞” and the Ki [4] was 0.49 nM.
With `O=C(Nc1cccc(C(=O)c2ccc3c(/C=C/c4ccccc4)n[nH]c3c2)c1)OCc1ccccc1` [Example 19(c)] the Ki [2] was 5.9 nM.
In the case of `Cc1cncc(C(=O)Nc2cccc(C(=O)c3ccc4c(/C=C/c5ccccc5)n[nH]c4c3)c2)c1` [Example 19(e), 6-[3-(5-Methylpyridin-3-ylcarboxamido)benzoyl]-3-E-styryl-1H-indazole], the Ki [2] is reported as 20 nM.
`CC(C)C(=O)Nc1cccc(C(=O)c2ccc3c(/C=C/c4ccccc4)n[nH]c3c2)c1` [Example 19(h), 6-[3-(2-Methylpropionamido)benzoyl]-3-E-styryl-1H-indazole] showed a Ki [2] of 5.9 nM.
`O=C(Nc1cccc(Sc2ccc3c(/C=C/c4ccccc4)n[nH]c3c2)c1)c1ccccc1` [Example 20(b), 6(3-(Benzoylamido)-phenylsulfanyl)-3-styryl-1H-indazole] showed a Ki [2] of 8 nM and a Ki [4] of 1.6 nM.
`C=C(c1cccc(NC(=O)c2ncc(C)s2)c1)c1ccc2c(/C=C/c3ccccc3)n[nH]c2c1` [Example 22(a), 6-(1-(3-(5-Methyl-thiaxole-2-carboxoylamido)phenyl)-vinyl)-3-styryl-1H-indazole] gave a Ki [2] of 0.2 nM and a Ki [4] of 0.22 nM.
Molecule `C=C(c1cccc(NC(=O)c2ccccc2)c1)c1ccc2c(/C=C/c3ccccc3)n[nH]c2c1` [Example 22(b), 6-(1-(3-(Benzoylamido)phenyl)-vinyl)-3-styryl-1H-indazole] has a Ki [2] of 1.2 nM and a Ki [4] of 0.63 nM.
In the case of `C=C(c1cccc(NC(C)=O)c1)c1ccc2c(/C=C/c3ccccc3)n[nH]c2c1` [Example 23, 6-(1-(3-Acetamido-phenyl)-vinyl)-3-styryl-1H-indazole], the “% remain (HLM, 2 h)” value [7] is reported as 74%, the Ki [2] is reported as 2.1 nM and the Ki [4] is reported as 1.6 nM.
Work on `COc1cc(-c2ccc3c(-c4nc5ccccc5[nH]4)n[nH]c3c2)c(C)cc1O` [Example 24(a), 4-[3-(1-H-Benzoimidazol-2-yl)-1-H-indazol-6-yl]-2-methoxy-5-methyl-phenol] yielded a Ki ([5]; Table 2) of 28 nM, a Ki ([1]; Table 2) of 17 nM and a Ki [2] of 98.3 nM. For the same molecule, the Ki [3] was 5.1 nM.
Molecule `Cc1cc(O)c(Cl)cc1-c1ccc2c(-c3nc4ccccc4[nH]3)n[nH]c2c1` [Example 24(c), 4-[3-(1-H-Benzoimidazol-2-yl)-1-H-indazol-6-yl]-2-chloro-5-methyl-phenol] has a Ki ([5]; Table 2) of 44 nM, a Ki ([1]; Table 2) of 3.4 nM and a Ki [2] of 14.2 nM. For the same molecule, the Ki [3] was 1.5 nM.
Molecule `Oc1ccc(-c2ccc3c(-c4nc5ccccc5[nH]4)n[nH]c3c2)c(Oc2ccccc2)c1` [Example 24(g), 3-1H-Benzoimidazol-2-yl-6-(2-phenoxy-4-hydroxyphenyl)-1H-indazole] has a Ki ([1]; Table 2) of 130 nM, a Ki [2] of 194 nM and a Ki [3] of 29 nM.
`CSc1cc(O)ccc1-c1ccc2c(-c3nc4ccccc4[nH]3)n[nH]c2c1` [Example 24(k), 3-1H-Benzoimidazol-2-yl-6-(2-methylsulfanyl-4-hydroxyphenyl)-1H-indazole] showed a Ki ([1]; Table 2) of 56 nM, a Ki [3] of 7.2 nM and a Ki [8] of 160 nM.
For `COc1cc(-c2ccc3c(/C=C/c4ccc(NC(=O)CN)cc4)n[nH]c3c2)ccc1O` [Example 26, 6(4-Hydroxy-3-methoxyphenyl)-3-[E-2-(4-glycylamino-phenyl)-ethenyl]-1H-indazole], the Ki ([5]; Table 1, read-out: CHK-1 Ki) was 6.6 nM, the Ki ([1]; Table 1) was 3.2 nM and the Ki [2] was 1.1 nM.
Molecule `CC(=O)N1CCC(C(=O)Nc2cccc(Oc3ccc4c(/C=C/c5ccc(Cl)cc5)n[nH]c4c3)c2)CC1` [Example 30(b), 6-[3-(1-Acetylpiperidin-4-ylcarboxamido)phenoxy]-3-E-[2-(4-chlorophenyl)ethenyl]-1H-indazole] has a Ki [2] of 2.2 nM.
`Nc1cccc(C(=O)c2ccc3c(/C=C/c4ccccn4)n[nH]c3c2)c1` [Example 40(a), 6(3-Amino-benzoyl)-3-E-[2-(pyridin-2-yl)ethenyl]-1H-indazole] gave a Ki [2] of 17.9 nM.
In the case of `CCn1nc(C)cc1C(=O)Nc1cccc(C(=O)c2ccc3c(/C=C/c4ccccn4)n[nH]c3c2)c1` [Example 41(a), 6-[3-((1-Ethyl-3-methyl-1H-pyrazol-5-yl)carboxamido)benzoyl]-3-E-[2-(pyridin-2-yl)ethenyl]-1H-indazole], the “% remain (HLM, 2 h)” value [7] is reported as 96%, the AUClast [6, 10] is reported as 92823 ng·h/mL and the Cmax [6, 10] is reported as 32202 ng/mL. The “plasma half-life (T1/2)” value [6, 10] was 2.9 h, the AUClast [6, 11] was 48998 ng·h/mL and the Cmax [6, 11] was 18433 ng/mL. For the same molecule, the “plasma half-life (T1/2)” value [6, 11] was 3.4 h, the concentration at 7 h ([6]; IP, 25 mg/kg) was 3860 ng/mL and the concentration at 7 h ([6]; PO, 50 mg/kg) was 2460 ng/mL. It also gave a Ki [8] of 20 nM and a Ki [4] of 0.03 nM.
For `Cc1cc(C(=O)Nc2cccc(C(=O)c3ccc4c(/C=C/c5ccccn5)n[nH]c4c3)c2)n(C)n1` [Example 41(p), 6-[3-((1,3-Dimethyl-1H-pyrazol-5-yl)carboxamido)benzoyl]-3-E-[2-(pyridin-2-yl)ethenyl]-1H-indazole], the “% remain (HLM, 2 h)” value [7] was 62%, the AUClast [6, 10] was 4150 ng·h/mL and the “plasma half-life (T1/2)” value [6, 10] was 5.5 h. It also gave a concentration at 7 h ([6]; IP, 25 mg/kg) of 380 ng/mL, a Ki [8] of 90 nM and a Ki [4] of 0.06 nM.
In the case of `O=CNc1ccccc1/C=C/c1n[nH]c2cc(C(=O)c3cccc(NC(=O)c4ccccc4)c3)ccc12` [Example 43, 6-(3-Benzamidobenzoyl)-3-E-[2-(2-formamidophenyl)ethenyl]-1H-indazole], the IC50 [9] is reported as 24 nM and the inhibition at 0.05 µM ([2]; read-out: FLVK-P % inhibition) is reported as 56%.
With `Nc1cccc(Nc2ccc3c(/C=C/c4ccccc4)n[nH]c3c2)c1` [Example 46] the Ki [2] was 3.5 nM.
